This note sets out measurements from ChEMBL document CHEMBL1148063, “(+/-)-Gelliusines A and B, two diastereomeric brominated tris-indole alkaloids from a deep water new caledonian marine sponge (Gellius or Orina sp.)” (J Nat Prod, 1994).

Assay [1] concerns Ileum. Put plainly: Inhibition of acetylcholine-induced contraction in guinea pig ileum at 0.2 ug/ml. Format: functional, tissue-based. To be noted: Cavia porcellus.
For a further assay, the system named is KB. Put plainly: Cytotoxicity against human KB cells. Format: functional, cell-based.
For assay [2], the system named is P388. Put plainly: Cytotoxicity against mouse P388 cells. Format: functional, cell-based.
Assay [3] concerns P388. The assay is described as follows: Cytotoxicity against mouse doxorubicin-resistant P388 cells. It counts as functional, cell-based.
Another assay concerns HT-29. Put plainly: Cytotoxicity against human HT-29 cells. Format: functional, cell-based.
Assay [4] in a line: Cytotoxicity against human NSCLC-N6 cells. It counts as functional, cell-based.
In assay [5] the test system is Ileum. Put plainly: Inhibition of serotonin-induced contraction in guinea pig ileum at 4 ug/ml. Format: functional, tissue-based. To be noted: Cavia porcellus.
For another assay, the species on record is Cavia porcellus. The assay is described as follows: Antagonist activity at serotonin receptor in guinea pig ileum. Format: functional, tissue-based.
For assay [6], the system named is Ileum. The assay is described as follows: Inhibition of acetylcholine-induced contraction in guinea pig ileum at 0.5 ug/ml. Format: functional, tissue-based. To be noted: Cavia porcellus.

≈ marks a conversion by molar mass, not a printed value. Calls of active or inactive are those of the source. The calls are words filed in the database; no cut-off is given here.

As for `CC(C)NCC(O)COc1cccc2ccccc12` (centres undefined), in the assay on Ileum [1], the outcome was inactive.
As usually defined, the IC50 is the point on the concentration scale where inhibition reaches its midpoint. For the compound `NCCc1c(C(CN)c2c[nH]c3cc(Br)ccc23)[nH]c2cc(C(CN)c3c[nH]c4cc(Br)ccc34)c(O)cc12` (racemic) [GELLIUSINE A], the half-maximal inhibitory concentration (IC50) (with KB; in the assay on P388 [2]; in the assay on P388 [3]; with HT-29; in assay [4]) was 10 µg/mL (≈ 15.4 µM) throughout. The result in the assay with Ileum [5] and in the assay filed under Cavia porcellus was Active.
`CC(COc1ccccc1)N(CCCl)Cc1ccccc1` (centres undefined): the outcome with Ileum [6] was inactive.
